Experimental data reported in patent US11319299B2, “Substituted carboxamides as inhibitors of WDR5 protein-protein binding” (PROPELLON THERAPEUTICS INC., priority 2016, dated 2022).
Like-named read-outs stand apart in the source and are kept apart here.

What was measured:
WDR5 = WDR5 (Homo sapiens (Human), UniProt P61964); experiment: Surface Plasmon Resonance (SPR) assay, KD and residence time; assay type: binding; settings: for Kd: read-out: WDR5 binding affinity (KD)
MV4-11 cells = experiment: Cell proliferation assay (ATPlite); assay type: cell-based; settings: Homo sapiens, MV4-11, 120 h; MV-411 cells, five days; read-out: In vitro whole cell potency in MV-411 cells, (IC50)
Method in brief: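 Read-out is ATP-based luminescence (ATPlite) after 5 days of culture at 37° C under 5% CO2. Compounds were given as 10-point dilutions starting at 10 μM to MV4-11 cells, seeded at 1,000 cells/well in Alpha-MEM plus 10% FBS.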

[1] = surface plasmon resonance (SPR)
[2] = surface plasmon resonance (SPR) assay

SMILES | Kd (WDR5; [1]) [nM] | IC50 (MV4-11 cells) [nM] | Kd (WDR5; [2]) [nM] | residence time (WDR5; τ=1/koff, Table 2, read-out: Residence Time (t, min)) [min]
C[C@@H]1CN(c2cc(F)c(C3=CCN(C(=O)OC4(C)CCC4)C3)cc2NC(=O)c2c[nH]c(=O)cc2C(F)(F)F)C[C@H](C)N1C [Example 472, (1-methylcyclobutyl) 3-[2-fluoro-5-[[6-oxo-4-(trifluoromethyl)-1H-pyridine-3-carbonyl]amino]-4-[(3R,5S)-3,4,5-trimethylpiperazin-1-yl]phenyl]-2,5-dihydropyrrole-1-carboxylate] | 0.407 | 104 | – | –
COc1cc(N2CC=C(c3cc(NC(=O)c4c[nH]c(=O)cc4C(F)(F)F)c(N4C[C@@H](C)N(C)[C@@H](C)C4)cc3F)CC2)ncn1 [Example 274, N-[4-fluoro-5-[1-(6-methoxypyrimidin-4-yl)-3,6-dihydro-2H-pyridin-4-yl]-2-[(3R,5S)-3,4,5-trimethylpiperazin-1-yl]phenyl]-6-oxo-4-(trifluoromethyl)-1H-pyridine-3-carboxamide] | – | 75 | 1.29 | –
CC1CN(c2cc(F)c(-c3cnc(N4C[C@@H](C)O[C@@H](C)C4)nc3)cc2NC(=O)c2c[nH]c(=O)cc2C(F)(F)F)CCN1C (stereo in doubt) [Example 202, N-[4-fluoro-5-[2-[(2R,6S)-2,6-dimethylmorpholin-4-yl]pyrimidin-5-yl]-2-[(3R)-3,4-dimethylpiperazin-1-yl]phenyl]-6-oxo-4-(trifluoromethyl)-1H-pyridine-3-carboxamide] | – | 20 | 0.434 | –
CC1CN(c2cc(F)c(-c3csc(N4CCOCC4)n3)cc2NC(=O)c2c[nH]c(=O)cc2C(F)(F)F)CCN1C (stereo in doubt) [Example 617, N-[4-fluoro-5-(2-morpholin-4-yl-1,3-thiazol-4-yl)-2-[(3R)-3,4-dimethylpiperazin-1-yl]phenyl]-6-oxo-4-(trifluoromethyl)-1H-pyridine-3-carboxamide] | 558000 | 36 | – | –
C[C@@H]1CN(c2ccc(-c3cc(NC(=O)c4c[nH]c(=O)cc4C(F)F)c(N4C[C@@H](C)N(C)[C@@H](C)C4)cc3F)cn2)CCO1 [Example 508, 4-(difluoromethyl)-N-[4-fluoro-5-[6-[(2R)-2-methylmorpholin-4-yl]pyridin-3-yl]-2-[(3R,5S)-3,4,5-trimethylpiperazin-1-yl]phenyl]-6-oxo-1H-pyridine-3-carboxamide] | 2.66 | 73 | – | –
C[C@@H]1CN(c2ncc(-c3cc(NC(=O)c4c[nH]c(=O)cc4C(F)(F)F)c(N4C[C@@H](C)N(C)[C@@H](C)C4)cc3F)cn2)C[C@H](C)O1 [Example 161, N-[4-fluoro-5-[2-[(2R,6S)-2,6-dimethylmorpholin-4-yl]pyrimidin-5-yl]-2-[(3S,5R)-3,4,5-trimethylpiperazin-1-yl]phenyl]-6-oxo-4-(trifluoromethyl)-1H-pyridine-3-carboxamide] | – | 28 | 1 | –
C[C@@H]1CN(c2cc(F)c(C3=CCCN(c4ncc(CO)cn4)C3)cc2NC(=O)c2c[nH]c(=O)cc2C(F)(F)F)C[C@H](C)N1C [Example 413, N-[4-fluoro-5-[1-[5-(hydroxymethyl)pyrimidin-2-yl]-3,6-dihydro-2H-pyridin-5-yl]-2-[(3R,5S)-3,4,5-trimethylpiperazin-1-yl]phenyl]-6-oxo-4-(trifluoromethyl)-1H-pyridine-3-carboxamide] | 0.302 | 57 | – | –
CC1CN(c2cc(F)c(-c3cnc(N4CCOCC4)nc3)cc2NC(=O)c2c[nH]c(=O)cc2C(F)F)CCN1C (stereo in doubt) [Example 410, 4-(difluoromethyl)-N-[4-fluoro-5-(2-morpholin-4-ylpyrimidin-5-yl)-2-[(3R)-3,4-dimethylpiperazin-1-yl]phenyl]-6-oxo-1H-pyridine-3-carboxamide] | 0.84 | 63 | – | –
C[C@@H]1CN(c2cc(F)c(-c3ccnc(N4CCOCC4)n3)cc2NC(=O)c2c[nH]c(=O)cc2C(F)(F)F)C[C@H](C)N1C [Example 378, N-[4-fluoro-5-(2-morpholin-4-ylpyrimidin-4-yl)-2-[(3R,5S)-3,4,5-trimethylpiperazin-1-yl]phenyl]-6-oxo-4-(trifluoromethyl)-1H-pyridine-3-carboxamide] | – | 20 | 0.877 | –
CC1CN(c2cc(F)c(-c3cnc(C#N)nc3)cc2NC(=O)c2c[nH]c(=O)cc2C(F)(F)F)CCN1C (stereo in doubt) [Example 197, N-[5-(2-cyanopyrimidin-5-yl)-4-fluoro-2-[(3R)-3,4-dimethylpiperazin-1-yl]phenyl]-6-oxo-4-(trifluoromethyl)-1H-pyridine-3-carboxamide] | – | 44 | 0.681 | –
C[C@@H]1CN(c2cc(F)c(-c3cnc(N4CCOCC4)nc3)cc2NC(=O)c2c[nH]nc2C(F)(F)F)C[C@H](C)N1C [Example 42, N-[4-fluoro-5-(2-morpholin-4-ylpyrimidin-5-yl)-2-[(3R,5S)-3,4,5-trimethylpiperazin-1-yl]phenyl]-3-(trifluoromethyl)-1H-pyrazole-4-carboxamide] | – | 428 | – | 3.45

More lines, in order of falling IC50 (MV4-11 cells), values ahead:

Kd (WDR5; [1]) [nM] | IC50 (MV4-11 cells) [nM] | Kd (WDR5; [2]) [nM] | residence time (WDR5; τ=1/koff, Table 2, read-out: Residence Time (t, min)) [min] | SMILES
– | 366 | 0.199 | – | CC(=O)Nc1ccc(-c2cc(NC(=O)c3c[nH]c(=O)cc3C(F)(F)F)c(N3C[C@@H](C)N(C)[C@@H](C)C3)cc2F)cn1 [Example 64, N-[5-(6-acetamidopyridin-3-yl)-4-fluoro-2-[(3R,5S)-3,4,5-trimethylpiperazin-1-yl]phenyl]-6-oxo-4-(trifluoromethyl)-1H-pyridine-3-carboxamide]
– | 125 | 1.39 | – | C[C@@H]1CN(c2cc(F)c(C3=CCN(c4ncccn4)CC3)cc2NC(=O)c2c[nH]c(=O)cc2C(F)(F)F)C[C@H](C)N1C [Example 245, N-[4-fluoro-5-(1-pyrimidin-2-yl-3,6-dihydro-2H-pyridin-4-yl)-2-[(3R,5S)-3,4,5-trimethylpiperazin-1-yl]phenyl]-6-oxo-4-(trifluoromethyl)-1H-pyridine-3-carboxamide]
0.494 | 78 | – | – | C[C@@H]1CN(c2cc(F)c(C3=CCCN(C(=O)OC4(C)CCC4)C3)cc2NC(=O)c2c[nH]c(=O)cc2C(F)(F)F)C[C@H](C)N1C [Example 471, (1-methylcyclobutyl) 5-[2-fluoro-5-[[6-oxo-4-(trifluoromethyl)-1H-pyridine-3-carbonyl]amino]-4-[(3R,5S)-3,4,5-trimethylpiperazin-1-yl]phenyl]-3,6-dihydro-2H-pyridine-1-carboxylate]
– | 71 | 10.9 | – | C[C@@H]1CN(c2cc(F)c(-c3ccc(OCC4CC4)c(Cl)c3)cc2NC(=O)c2c[nH]c(=O)cc2C(F)(F)F)C[C@H](C)N1C [Example 92, N-[5-[3-chloro-4-(cyclopropylmethoxy)phenyl]-4-fluoro-2-[(3R,5S)-3,4,5-trimethylpiperazin-1-yl]phenyl]-6-oxo-4-(trifluoromethyl)-1H-pyridine-3-carboxamide]
– | 52 | 1.97 | – | CC1CN(c2cc(F)c(-c3ccc(N4C[C@@H](C)O[C@@H](C)C4)nc3)cc2NC(=O)c2c[nH]c(=O)cc2C(F)(F)F)CCN1C (stereo in doubt) [Example 341, N-[4-fluoro-5-[6-[(2R,6S)-2,6-dimethylmorpholin-4-yl]pyridin-3-yl]-2-[(3R)-3,4-dimethylpiperazin-1-yl]phenyl]-6-oxo-4-(trifluoromethyl)-1H-pyridine-3-carboxamide]
– | 42 | 2.28 | – | CC(C)C1CN(c2ncc(-c3cc(NC(=O)c4c[nH]c(=O)cc4C(F)(F)F)c(N4C[C@@H](C)N(C)[C@@H](C)C4)cc3F)cn2)CCO1 (stereo in doubt) [Example 348, N-[4-fluoro-5-[2-[(2R)-2-propan-2-ylmorpholin-4-yl]pyrimidin-5-yl]-2-[(3S,5R)-3,4,5-trimethylpiperazin-1-yl]phenyl]-6-oxo-4-(trifluoromethyl)-1H-pyridine-3-carboxamide]
– | 31 | 0.095 | – | C[C@@H]1CN(c2cc(F)c(C3=CCCN(c4ncccn4)C3)cc2NC(=O)c2c[nH]c(=O)cc2C(F)(F)F)C[C@H](C)N1C [Example 334, N-[4-fluoro-5-(1-pyrimidin-2-yl-3,6-dihydro-2H-pyridin-5-yl)-2-[(3R,5S)-3,4,5-trimethylpiperazin-1-yl]phenyl]-6-oxo-4-(trifluoromethyl)-1H-pyridine-3-carboxamide]
0.694 | 22 | – | – | C[C@@H]1CN(c2cc(F)c(-c3csc(C(=O)N(C)CC4CC4)n3)cc2NC(=O)c2c[nH]c(=O)cc2C(F)(F)F)C[C@H](C)N1C [Example 532, N-(cyclopropylmethyl)-4-[2-fluoro-5-[[6-oxo-4-(trifluoromethyl)-1H-pyridine-3-carbonyl]amino]-4-[(3R,5S)-3,4,5-trimethylpiperazin-1-yl]phenyl]-N-methyl-1,3-thiazole-2-carboxamide]
0.712 | 19 | – | – | CC1CN(c2nccc(-c3cc(NC(=O)c4c[nH]c(=O)cc4C(F)(F)F)c(N4C[C@@H](C)N(C)[C@@H](C)C4)cc3F)n2)CCO1 (stereo in doubt) [Example 594, N-[4-fluoro-5-[2-[(2R)-2-methylmorpholin-4-yl]pyrimidin-4-yl]-2-[(3S,5R)-3,4,5-trimethylpiperazin-1-yl]phenyl]-6-oxo-4-(trifluoromethyl)-1H-pyridine-3-carboxamide]
1.1 | 17 | – | – | C[C@@H]1CN(c2cc(F)c(C3=CCCN(c4ncc(CN5CCOCC5)cn4)C3)cc2NC(=O)c2c[nH]c(=O)cc2C(F)(F)F)C[C@H](C)N1C [Example 415, N-[4-fluoro-5-[1-[5-(morpholin-4-ylmethyl)pyrimidin-2-yl]-3,6-dihydro-2H-pyridin-5-yl]-2-[(3R,5S)-3,4,5-trimethylpiperazin-1-yl]phenyl]-6-oxo-4-(trifluoromethyl)-1H-pyridine-3-carboxamide]
